From patent publication US9689040B2, “Selective inhibitors of tumor-initiating cells” (Children's Medical Center Corporation, priority 2011, dated 2017)

Columns and labels:
proteasome [1] = target: T1, proteasome (Homo sapiens, UniProt P28074); experiment: Proteasome activity in BPLER tumors after treatment (ProteasomeGlo assay); format: in vivo, mouse; settings: after 18 hours
Protocol: (§1) (6A) Proteasome activity in protein lysates from BPLER tumors 18 hours after intratumoral (i.t.), intraperithoneal (i.p) or intravenous (i.v.) treatment with bortezomib at the indicated dose, as determined by ProteasomeGlo assay. Proteasome activity in BPLER treated with bortezomib in vitro is shown as control. (6B-6E) Mean tumor volume (6B, 6D) in BPLER tumor-bearing mice after treatment with bortezomib or DMSO at the indicated dose, schedule and route of administration. Median tumor weight was measured at time of sacrifice (6C, 6E). […] (6F) Immunoblot analysis of protein lysates from BPLER tumors 18 hours after 1 intravenous dose of bortezomib at 1.6 mg/kg bortezomib or DMSO, showing efficient Noxa induction and caspase-3 and PARP1 cleavage after bortezomib treatment. (6G) Mean tumor volume in MB-468 tumor-bearing mice after intravenous treatment with 1.6 mg/kg bortezomib weekly. (6H) Schematic diagram illustrating generation of mouse TNBC primary tumor fragments for bortezomib-based therapy studies. […] 4T1-E tumors are shown as control. (6I, 6J) Mean V22 tumor volume (6I) after weekly intravenous infusion of bortezomib (1.6 mg/kg) or DMSO. Treatment was started 2 days after implantation of primary tumor fragments. […] The top and the bottom of each box represent the 75th and 25th percentile of tumor weight, respectively. Upper and lower whiskers represent maximum and minimum tumor weight, respectively. The black horizontal band in each box corresponds to median tumor weight.
Our data thus far indicate that highly malignant epithelial TNBC cells are selectively susceptible to proteasome inhibition. Bortezomib is already in the clinic for treatment of multiple myeloma and other lymphomas. […] To assess therapeutic efficacy, we administered bortezomib every 3 days (0.8 mg/kg i.t.) or weekly (1.6 mg/kg i.v.) after BPLER tumors, implanted in the flank of Nu/J mice, became palpable. BPLER tumor outgrowth was assessed by tumor volume during the treatment period and by tumor weight at the time of sacrifice. […]

[2] = test system: BPE, HMLER and BPLER cells; experiment: Cell cycle distribution (propidium iodide DNA staining)
[3] = test system: mouse TNBC primary tumor fragments; experiment: Primary TNBC tumor fragments from TP53 heterozygous Balb/c mice implanted in mammary fat-pad (V22 tumors); format: in vivo; settings: 1.6 mg/kg weekly i.v. infusion
Protocol: as §1, with “Upper and lower whiskers represent maximum and minimum tumor weight, respectively. The black horizontal band in each box corresponds to median tumor weight.” left out

[4] = test system: unselected breast cancer patients; settings: eight phase I/II studies, chemotherapy combination regimens with bortezomib; cited from earlier work
[5] = test system: epithelial TNBC / basal-like cells (MB-468, HCC-1143, HCC-1937, 4T1-E); experiment: cells; settings: 24 h, read-out: decrease of cell viability
[6] = test system: luminal MCF7 and BT-474 cells; experiment: Viability of breast cancer cell lines treated with bortezomib (CellTiterGlo); format: cell-based, human
BPLER cells = experiment: Cell viability after drug treatment (CellTiterGlo / Trypan-Blue); format: cell-based, human
proteasome [7] = target: T1, proteasome; experiment: Proteasome activity in BPLER and HMLER cells (ProteaGlo assay); settings: 6 hr after treatment
MB-468 tumors = experiment: MB-468 tumor-bearing mice; format: in vivo, mouse; settings: intratumoral or intravenous regimen, 45 days
Protocol: Mean tumor volume in MB-468 tumor-bearing mice upon intratumoral infusion of bortezomib (0.8 mg/kg) or DMSO q3d.
Treatment was started once mice developed palpable tumors.

T1 sequence (P28074 60-263): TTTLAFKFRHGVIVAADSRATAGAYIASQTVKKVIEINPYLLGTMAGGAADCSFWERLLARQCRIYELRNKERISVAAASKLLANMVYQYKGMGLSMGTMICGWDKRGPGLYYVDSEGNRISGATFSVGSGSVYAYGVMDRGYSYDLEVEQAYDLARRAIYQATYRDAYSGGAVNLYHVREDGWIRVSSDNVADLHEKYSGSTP

CC(C)C[C@H](NC(=O)[C@H](Cc1ccccc1)NC(=O)c1cnccn1)B(O)O [bortezomib]
proteasome inhibition in the tumor (proteasome [1]; 1.6 mg/kg i.v.): efficient proteasome activity inhibition | proteasome inhibition in the tumor (proteasome [1]; 1 dose 0.8 mg/kg i.p. or i.v.): less effective | proteasome inhibition in the tumor (proteasome [1]; 1 dose 0.8 mg/kg i.t.): Nearly complete proteasome inhibition | cell cycle distribution ([2]; BPE cells, 24 hours): underwent G2/M arrest | cell cycle distribution ([2]; BPLER cells, low dose): did not undergo cell cycle arrest | cell cycle distribution ([2]; HMLER cells, low dose): underwent G2/M arrest | secondary tumors smaller compared to control mice [3]: ~90% | secondary tumors weighed less compared to control mice [3]: ~80% | partial response rates [4]: 10-20% | cytotoxicity at 0.0125 µM [5]: 50 to 65% | cytotoxicity at 0.0125 µM ([6]; Homo sapiens, luminal cells, 12.5 nM, 24 hr, read-out: decrease of cell viability): 5% | sensitivity of ER+ and HER2+ breast cancer cell lines ([6]; MCF7, BT-474): resistant | sensitivity of BPLER relative to HMLER cells (viability) (BPLER cells; increasing doses, 24 hr): more sensitive | response of BPLER cells at confluence (BPLER cells; non-dividing (confluent) cells): became resistant | proteasomal activity in BPLER and HMLER (proteasome [7]): similarly inhibited proteasome activity | tumors smaller compared to control mice (MB-468 tumors): at least 6 fold
